According to ChEMBL document CHEMBL1126344, “Substituted penta- and hexapeptides as potent inhibitors of herpes simplex virus type 2 ribonucleotide reductase” (Bioorg Med Chem Lett, 1992):
Non-standard residues stand in square brackets, D forms with d. Residues, ends and D or L forms follow the SMILES beside them. *: point of attachment. Dibenzylacetyl = O=C(C(Cc1ccccc1)Cc1ccccc1)*; NMeY = CN[C@@H](Cc1ccc(O)cc1)C(=O)O; tBuAla = CC(C)(C)C[C@H](N)C(=O)O; NBn2 = c1ccc(CN(Cc2ccccc2)*)cc1; Cha = N[C@@H](CC1CCCCC1)C(=O)O; AllylGly = C=CC[C@H](N)C(=O)O; Morpholide = C1CN(*)CCO1; Pyrrolidide = C1CCN(*)C1; NHBn = c1ccc(CN*)cc1; NMeEt = CCN(C)*

Assays:
[1] = Inhibitory activity of YAGAVVNDL against Herpes Simplex Virus type 2 (HSV-2) ribonucleotide reductase determined as control; set-up: species or system Human alphaherpesvirus 2
Human alphaherpesvirus 2 = assay: Relative potency to that of YAGAVVNDL against Herpes Simplex Virus type 2 ribonucleotide reductase
[2] = The compound was tested in vitro for inhibitory activity against Herpes Simplex Virus type 2 ribonucleotide reductase; set-up: species or system Human alphaherpesvirus 2

Row | Structure (SMILES) | IC50 [1] [µM] | Relative potency (Human alphaherpesvirus 2) | IC50 [2] [µM]
1 | CC(C)C[C@H](NC(=O)[C@H](CC(=O)O)NC(=O)[C@H](CC(N)=O)NC(=O)[C@@H](NC(=O)[C@@H](NC(=O)CC(c1ccccc1)c1ccccc1)C(C)C)C(C)C)C(=O)O | 60 | 6 | 10
2 | CC(C)C[C@H](NC(=O)[C@H](CC(=O)O)NC(=O)[C@H](CC(N)=O)NC(=O)[C@@H](NC(=O)[C@@H](NC(=O)C(C)C)C(C)C)C(C)C)C(=O)O | 5 | 0.17 | 30
3 | CC(C)C[C@H](NC(=O)[C@H](CC(=O)O)NC(=O)[C@H](CC(N)=O)NC(=O)[C@@H](NC(=O)[C@@H](NC(=O)C(Cc1ccccc1)Cc1ccccc1)C(C)C)C(C)C)C(=O)O | 19 | 38 | 0.5
4 | CC(C)C[C@H](NC(=O)[C@H](CC(=O)O)NC(=O)[C@H](CC(N)=O)NC(=O)[C@@H](NC(=O)[C@@H](NC(=O)CCc1ccccc1)C(C)C)C(C)C)C(=O)O | 17 | 1.5 | 11
5 | CC(C)C[C@H](NC(=O)[C@H](CC(=O)O)NC(=O)[C@H](CC(N)=O)NC(=O)[C@@H](NC(=O)[C@@H](NC(=O)N(Cc1ccccc1)Cc1ccccc1)C(C)C)C(C)C)C(=O)O | 24 | 2.2 | 11
6 | CC(C)C[C@H](NC(=O)[C@H](CC(=O)O)NC(=O)[C@H](CC(N)=O)NC(=O)[C@@H](NC(=O)[C@@H](NC(=O)N(c1ccccc1)c1ccccc1)C(C)C)C(C)C)C(=O)O | 24 | 0.14 | 170
7 | CC(C)C[C@H](NC(=O)[C@H](CC(=O)O)NC(=O)[C@H](CC(N)=O)NC(=O)[C@@H](NC(=O)[C@@H](NC(=O)CCc1ccc(O)cc1)C(C)C)C(C)C)C(=O)O | 20 | 1 | 21
8 | CC(C)C[C@H](NC(=O)[C@H](CC(=O)O)NC(=O)[C@H](CC(N)=O)NC(=O)[C@@H](NC(=O)[C@@H](NC(=O)C(c1ccccc1)c1ccccc1)C(C)C)C(C)C)C(=O)O | 24 | 0.27 | 90
9 | CC(C)C[C@H](NC(=O)[C@H](CC(=O)O)NC(=O)[C@H](CC(N)=O)NC(=O)[C@@H](NC(=O)[C@@H](NC(=O)C(Cc1ccc(O)cc1)Cc1ccc(O)cc1)C(C)C)C(C)C)C(=O)O | 35 | 5.4 | 6.5
10 | CC(C)C[C@H](NC(=O)[C@H](CC(=O)O)NC(=O)[C@H](CC(N)=O)NC(=O)[C@@H](NC(=O)[C@@H](NC(=O)C(C)(C)C)C(C)C)C(C)C)C(=O)O | 5 | 0.24 | 21
11 | CC(C)C[C@H](NC(=O)[C@H](CC(=O)O)NC(=O)[C@H](CC(=O)NCc1ccccc1)NC(=O)[C@@H](NC(=O)[C@@H](NC(=O)C(Cc1ccccc1)Cc1ccccc1)C(C)C)C(C)C)C(=O)O (Dibenzylacetyl-VVD(NHBn)DL-OH) | 22 | 55 | 0.4
12 | CC(C)[C@H](NC(=O)C(Cc1ccccc1)Cc1ccccc1)C(=O)N[C@H](C(=O)N[C@@H](CC(=O)NCc1ccccc1)C(=O)N[C@@H](CC(=O)O)C(=O)N[C@@H](CC(C)(C)C)C(=O)O)C(C)C (Dibenzylacetyl-VVD(NHBn)D[tBuAla]-OH) | 10 | 50 | 0.2
13 | CC(C)[C@H](NC(=O)C(Cc1ccccc1)Cc1ccccc1)C(=O)N[C@H](C(=O)N[C@@H](CC(=O)N(C)C)C(=O)N[C@@H](CC(=O)O)C(=O)N[C@@H](CC(C)(C)C)C(=O)O)C(C)C (Dibenzylacetyl-VVD(NMe2)D[tBuAla]-OH) | 21 | 70 | 0.3
14 | CC(C)[C@H](NC(=O)C(Cc1ccccc1)Cc1ccccc1)C(=O)N[C@H](C(=O)N[C@@H](CC(N)=O)C(=O)N[C@@H](CC(=O)O)C(=O)N[C@@H](CC(C)(C)C)C(=O)O)C(C)C (Dibenzylacetyl-VVND[tBuAla]-OH) | 12 | 120 | 0.1
15 | CC(C)C[C@H](NC(=O)[C@H](CC(=O)O)NC(=O)[C@H](CC(=O)N(C)C)NC(=O)[C@@H](NC(=O)[C@@H](NC(=O)[C@@H](N)CC(=O)O)C(C)C)C(C)C)C(=O)O (H-DVVD(NMe2)DL-OH) | 9.5 | 63 | 0.15
16 | CC(C)C[C@H](NC(=O)[C@H](CC(=O)O)NC(=O)[C@H](CC(=O)N1CCCC1)NC(=O)[C@@H](NC(=O)[C@@H](NC(=O)[C@@H](N)CC(=O)O)C(C)C)C(C)C)C(=O)O (H-DVVD(Pyrrolidide)DL-OH) | 32 | 32 | 1
17 | COC(=O)C[C@H](NC(=O)[C@@H](NC(=O)[C@@H](NC(=O)[C@@H](N)Cc1ccccc1)C(C)C)C(C)C)C(=O)N[C@@H](CC(=O)O)C(=O)N[C@@H](CC(C)C)C(=O)O (H-FVVD(OMe)DL-OH) | 27 | 14 | 2
18 | CC(C)C[C@H](NC(=O)[C@H](CC(=O)O)NC(=O)[C@H](CC(=O)N1CCOCC1)NC(=O)[C@@H](NC(=O)[C@@H](NC(=O)[C@@H](N)Cc1ccc(O)cc1)C(C)C)C(C)C)C(=O)O (H-YVVD(Morpholide)DL-OH) | 22 | 36 | 0.6

Row | Structure (SMILES) | IC50 [1] [µM] | Relative potency (Human alphaherpesvirus 2) | IC50 [2] [µM]
19 | CC(C)C[C@H](NC(=O)[C@H](CC(=O)O)NC(=O)[C@H](CC(=O)N(Cc1ccccc1)Cc1ccccc1)NC(=O)[C@@H](NC(=O)[C@@H](NC(=O)[C@@H](N)Cc1ccc(O)cc1)C(C)C)C(C)C)C(=O)O (H-YVVD(NBn2)DL-OH) | 25 | 13 | 2
20 | CC(C)C[C@H](NC(=O)[C@H](CC(=O)O)NC(=O)[C@H](CC(=O)NCc1ccccc1)NC(=O)[C@@H](NC(=O)[C@@H](NC(=O)[C@@H](N)Cc1ccc(O)cc1)C(C)C)C(C)C)C(=O)O (H-YVVD(NHBn)DL-OH) | 22 | 5.5 | 4
21 | CNC(=O)C[C@H](NC(=O)[C@@H](NC(=O)[C@@H](NC(=O)[C@@H](N)Cc1ccc(O)cc1)C(C)C)C(C)C)C(=O)N[C@@H](CC(=O)O)C(=O)N[C@@H](CC(C)C)C(=O)O (H-YVVD(NHMe)DL-OH) | 21 | 11 | 2
22 | CC(C)C[C@H](NC(=O)[C@H](CC(=O)O)NC(=O)[C@H](CC(=O)N(C)C)NC(=O)[C@@H](NC(=O)[C@@H](NC(=O)[C@@H](N)Cc1ccc(O)cc1)C(C)C)C(C)C)C(=O)O (H-YVVD(NMe2)DL-OH) | 27 | 90 | 0.3
23 | CC(C)[C@H](NC(=O)[C@@H](NC(=O)[C@@H](N)Cc1ccc(O)cc1)C(C)C)C(=O)N[C@@H](CC(=O)N(C)C)C(=O)N[C@@H](CC(=O)O)C(=O)N[C@@H](CC(C)(C)C)C(=O)O (H-YVVD(NMe2)D[tBuAla]-OH) | 22 | 110 | 0.2
24 | CCN(C)C(=O)C[C@H](NC(=O)[C@@H](NC(=O)[C@@H](NC(=O)[C@@H](N)Cc1ccc(O)cc1)C(C)C)C(C)C)C(=O)N[C@@H](CC(=O)O)C(=O)N[C@@H](CC(C)C)C(=O)O (H-YVVD(NMeEt)DL-OH) | 10 | 25 | 0.4
25 | CC(C)C[C@H](NC(=O)[C@H](CC(=O)O)NC(=O)[C@H](CC(=O)N1CCCC1)NC(=O)[C@@H](NC(=O)[C@@H](NC(=O)[C@@H](N)Cc1ccc(O)cc1)C(C)C)C(C)C)C(=O)O (H-YVVD(Pyrrolidide)DL-OH) | 32 | 32 | 1
26 | C=CC[C@H](NC(=O)[C@H](CC(=O)O)NC(=O)[C@H](CC(N)=O)NC(=O)[C@@H](NC(=O)[C@@H](NC(=O)[C@@H](N)Cc1ccc(O)cc1)C(C)C)C(C)C)C(=O)O (H-YVVND[AllylGly]-OH) | 22 | – | > 430
27 | CC(C)[C@H](NC(=O)[C@@H](NC(=O)[C@@H](N)Cc1ccc(O)cc1)C(C)C)C(=O)N[C@@H](CC(N)=O)C(=O)N[C@@H](CC(=O)O)C(=O)N[C@@H](CC1CCCCC1)C(=O)O (H-YVVND[Cha]-OH) | 16 | 0.29 | 55
28 | CN[C@@H](Cc1ccc(O)cc1)C(=O)N[C@H](C(=O)N[C@H](C(=O)N[C@@H](CC(N)=O)C(=O)N[C@@H](CC(=O)O)C(=O)N[C@@H](CC(C)C)C(=O)O)C(C)C)C(C)C (H-[NMeY]VVNDL-OH) | 15 | – | –
29 | CC(C)C[C@H](NC(=O)[C@H](CC(=O)O)NC(=O)[C@H](CC(N)=O)NC(=O)[C@@H](NC(=O)[C@@H](NC(=O)[C@@](C)(N)Cc1ccc(O)cc1)C(C)C)C(C)C)C(=O)O (stereo in doubt; form 1) [listing 1 of 2 here] | 30 | – | 58
30 | CC(C)C[C@H](NC(=O)[C@H](CC(=O)O)NC(=O)[C@H](CC(N)=O)NC(=O)[C@@H](NC(=O)[C@@H](NC(=O)C(Cc1ccccc1)Cc1ccc(O)cc1)C(C)C)C(C)C)C(=O)O (stereo in doubt; form 1) | – | 21 | –
31 | CC(C)C[C@H](NC(=O)[C@H](CC(=O)O)NC(=O)[C@H](CC(N)=O)NC(=O)[C@@H](NC(=O)[C@@H](NC(=O)[C@@](C)(N)Cc1ccc(O)cc1)C(C)C)C(C)C)C(=O)O (stereo in doubt; form 1) [listing 2 of 2 here] | – | 0.52 | –
32 | CC(C)C[C@H](NC(=O)[C@H](CC(=O)O)NC(=O)[C@H](CC(N)=O)NC(=O)[C@@H](NC(=O)[C@@H](NC(=O)C(Cc1ccccc1)Cc1ccc(O)cc1)C(C)C)C(C)C)C(=O)O (stereo in doubt; form 2) [listing 1 of 2 here] | 9 | – | 1.5
33 | CC(C)C[C@H](NC(=O)[C@H](CC(=O)O)NC(=O)[C@H](CC(N)=O)NC(=O)[C@@H](NC(=O)[C@@H](NC(=O)[C@@](C)(N)Cc1ccc(O)cc1)C(C)C)C(C)C)C(=O)O (stereo in doubt; form 2) [listing 1 of 2 here] | – | – | 120
34 | CC(C)C[C@H](NC(=O)[C@H](CC(=O)O)NC(=O)[C@H](CC(N)=O)NC(=O)[C@@H](NC(=O)[C@@H](NC(=O)C(Cc1ccccc1)Cc1ccc(O)cc1)C(C)C)C(C)C)C(=O)O (stereo in doubt; form 2) [listing 2 of 2 here] | – | 6 | –
35 | CC(C)C[C@H](NC(=O)[C@H](CC(=O)O)NC(=O)[C@H](CC(N)=O)NC(=O)[C@@H](NC(=O)[C@@H](NC(=O)[C@@](C)(N)Cc1ccc(O)cc1)C(C)C)C(C)C)C(=O)O (stereo in doubt; form 2) [listing 2 of 2 here] | – | 0.25 | –
